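Five compound concentrations were applied to cells in 96-well plates for 48 hours; endpoints were derived by simple linear interpolation of the resulting dose-response curve. The concentration for 50% growth inhibition is given as GI50.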 Activity calls are given as the source filed them. Rule as the data show it: active = GI50 up to about 1.1 µM and inactive = higher.
How the values were obtained:
Experiment in all cases: growth of human tumour cells (NCI), 48 h
HCT-116 = tested on: HCT-116
M14 = tested on: M14
K562 = tested on: K562
SK-OV-3 = tested on: SK-OV-3
LXFL 529 = tested on: LXFL 529
U-251 = tested on: U-251
DMS-273 = tested on: DMS-273
A549 = tested on: A549
NCI-H460 = tested on: NCI-H460
DLD-1 = tested on: DLD-1
HCT-15 = tested on: HCT-15
SNB-19 = tested on: SNB-19
MOLT-4 = tested on: MOLT-4
HL-60 = tested on: HL-60
UACC-257 = tested on: UACC-257
ACHN = tested on: ACHN
HOP-92 = tested on: HOP-92
RXF 631 = tested on: RXF 631
HOP-62 = tested on: HOP-62
TK-10 = tested on: TK-10
SK-MEL-5 = tested on: SK-MEL-5
SW-620 = tested on: SW-620
SR = tested on: SR
RPMI-8226 = tested on: RPMI-8226
SK-MEL-2 = tested on: SK-MEL-2
OVCAR-4 = tested on: OVCAR-4
A498 = tested on: A498
KM-20L2 = tested on: KM-20L2
UACC-62 = tested on: UACC-62
SNB-75 = tested on: SNB-75
NCI-H23 = tested on: NCI-H23
SF-295 = tested on: SF-295
M19-MEL = tested on: M19-MEL
UO-31 = tested on: UO-31
NCI-H522 = tested on: NCI-H522
EKVX = tested on: EKVX
SNB-78 = tested on: SNB-78
OVCAR-3 = tested on: OVCAR-3
CCRF-CEM = tested on: CCRF-CEM
XF498 = tested on: XF498
786-0 = tested on: 786-0
CAKI-1 = tested on: CAKI-1
DMS-114 = tested on: DMS-114
OVCAR-8 = tested on: OVCAR-8
SK-MEL-28 = tested on: SK-MEL-28
COLO 205 = tested on: COLO 205
KM12 = tested on: KM12
RXF 393 = tested on: RXF 393
SF-268 = tested on: SF-268
LOX IMVI = tested on: LOX IMVI
NCI-H226 = tested on: NCI-H226
BT-549 = tested on: BT-549
HOP-18 = tested on: HOP-18
HCC 2998 = tested on: HCC 2998
Malme-3M = tested on: Malme-3M
DU-145 = tested on: DU-145
SF-539 = tested on: SF-539
HT-29 = tested on: HT-29
SN12C = tested on: SN12C
MDA-MB-231 = tested on: MDA-MB-231
NCI/ADR-RES = tested on: NCI/ADR-RES
OVCAR-5 = tested on: OVCAR-5
IGROV-1 = tested on: IGROV-1
MDA-MB-435 = tested on: MDA-MB-435
T47D = tested on: T47D
MDA-N = tested on: MDA-N
MCF7 = tested on: MCF7
PC-3 = tested on: PC-3
Hs-578T = tested on: Hs-578T

For `OCCN(CCO)c1cccc(N(CCO)CCO)c1`, the GI50 (HCT-116) was > 100000 nM (inactive), the GI50 (M14) was > 100000 nM (inactive) and the GI50 (K562) was > 100000 nM (inactive). For the same molecule, the GI50 (SK-OV-3) was > 100000 nM (inactive), the GI50 (LXFL 529) was > 100000 nM (inactive) and the GI50 (U-251) was > 100000 nM (inactive). For the same molecule, the GI50 (DMS-273) was > 100000 nM (inactive), the GI50 (A549) was > 100000 nM (inactive) and the GI50 (NCI-H460) was > 100000 nM (inactive). The GI50 (DLD-1) was > 100000 nM (inactive), the GI50 (HCT-15) was over 100000 nM and the GI50 (SNB-19) was 39200 nM (inactive). For the same molecule, the GI50 (MOLT-4) was > 100000 nM (inactive), the GI50 (HL-60) was > 100000 nM (inactive) and the GI50 (UACC-257) was > 100000 nM (inactive). For the same molecule, the GI50 (ACHN) was > 100000 nM (inactive), the GI50 (HOP-92) was > 100000 nM (inactive) and the GI50 (RXF 631) was > 100000 nM (inactive). For the same molecule, the GI50 (HOP-62) was > 100000 nM (inactive), the GI50 (TK-10) was > 100000 nM (inactive) and the GI50 (SK-MEL-5) was > 100000 nM (inactive). The GI50 (SW-620) was > 100000 nM (inactive), the GI50 (SR) was > 100000 nM (inactive) and the GI50 (RPMI-8226) was > 100000 nM (inactive). For the same molecule, the GI50 (SK-MEL-2) was > 100000 nM (inactive), the GI50 (OVCAR-4) was > 100000 nM (inactive) and the GI50 (A498) was > 100000 nM (inactive). For the same molecule, the GI50 (KM-20L2) was 38500 nM (inactive), the GI50 (UACC-62) was 72800 nM (inactive) and the GI50 (SNB-75) was > 100000 nM (inactive). For the same molecule, the GI50 (NCI-H23) was > 100000 nM (inactive), the GI50 (SF-295) was > 100000 nM (inactive) and the GI50 (M19-MEL) was > 100000 nM (inactive). The GI50 (UO-31) was 28600 nM (inactive), the GI50 (NCI-H522) was > 100000 nM (inactive) and the GI50 (EKVX) was > 100000 nM (inactive). For the same molecule, the GI50 (SNB-78) was > 100000 nM (inactive), the GI50 (OVCAR-3) was > 100000 nM (inactive) and the GI50 (CCRF-CEM) was > 100000 nM (inactive). The GI50 (XF498) was > 100000 nM (inactive), the GI50 (786-0) was > 100000 nM (inactive) and the GI50 (CAKI-1) was > 100000 nM (inactive). The GI50 (DMS-114) was > 100000 nM (inactive), the GI50 (OVCAR-8) was > 100000 nM (inactive) and the GI50 (SK-MEL-28) was > 100000 nM (inactive). For the same molecule, the GI50 (COLO 205) was > 100000 nM (inactive), the GI50 (KM12) was > 100000 nM (inactive) and the GI50 (RXF 393) was > 100000 nM (inactive). For the same molecule, the GI50 (SF-268) was > 100000 nM (inactive) and the GI50 (LOX IMVI) was > 100000 nM (inactive).

For `Cc1cc(O)c2c(c1)C[C@@H](O)C1=C2C(=O)c2c(O)ccc(OC3CC(O)C(OC4CC(OC5CCC(OC6CC(O)C(OC7CC(OC8CCC(O)C(C)O8)C(O)C(C)O7)C(C)O6)C(C)O5)C(O)C(C)O4)C(C)O3)c2C1=O` (some centres not stated), the GI50 (HCT-116) was 49.2 nM (active), the GI50 (M14) was 78.9 nM (active) and the GI50 (K562) was 65.3 nM (active). The GI50 (LXFL 529) was 15.5 nM (active), the GI50 (U-251) was 38.7 nM (active) and the GI50 (DMS-273) was 20.9 nM (active). For the same molecule, the GI50 (A549) was 302 nM (active), the GI50 (NCI-H460) was 238 nM (active) and the GI50 (DLD-1) was 17.3 nM (active). The GI50 (HCT-15) was 68.4 nM, the GI50 (NCI-H226) was 268 nM (active) and the GI50 (SNB-19) was 177 nM (active). The GI50 (MOLT-4) was 35.2 nM (active), the GI50 (BT-549) was 327 nM (active) and the GI50 (HL-60) was 36.4 nM (active). The GI50 (UACC-257) was 110 nM (active), the GI50 (ACHN) was 84.5 nM (active) and the GI50 (HOP-92) was 178 nM (active). For the same molecule, the GI50 (HOP-18) was 40.3 nM (active), the GI50 (HOP-62) was 232 nM (active) and the GI50 (HCC 2998) was 105 nM (active). For the same molecule, the GI50 (Malme-3M) was 51.6 nM (active), the GI50 (DU-145) was 345 nM (active) and the GI50 (TK-10) was 184 nM (active). The GI50 (SK-MEL-5) was 87.9 nM (active), the GI50 (SW-620) was 38.1 nM (active) and the GI50 (SR) was 71.5 nM (active). For the same molecule, the GI50 (RPMI-8226) was 26.5 nM (active), the GI50 (SF-539) was 71.6 nM (active) and the GI50 (SK-MEL-2) was 57.7 nM (active). The GI50 (HT-29) was 92 nM (active), the GI50 (SN12C) was 58.1 nM (active) and the GI50 (MDA-MB-231) was 171 nM (active). The GI50 (NCI/ADR-RES) was 30.8 nM (active), the GI50 (OVCAR-4) was 17.9 nM (active) and the GI50 (OVCAR-5) was 128 nM (active). For the same molecule, the GI50 (IGROV-1) was 176 nM (active), the GI50 (A498) was 373 nM (active) and the GI50 (KM-20L2) was 46.1 nM (active). The GI50 (UACC-62) was 70.2 nM (active), the GI50 (SNB-75) was 57.3 nM (active) and the GI50 (MDA-MB-435) was 135 nM (active). For the same molecule, the GI50 (NCI-H23) was 66.1 nM (active), the GI50 (SF-295) was 44.1 nM (active) and the GI50 (M19-MEL) was 4.11 nM (active). The GI50 (UO-31) was 156 nM (active), the GI50 (NCI-H522) was 18.8 nM (active) and the GI50 (EKVX) was 112 nM (active). The GI50 (SNB-78) was 24.5 nM (active), the GI50 (OVCAR-3) was 64.1 nM (active) and the GI50 (T47D) was 167 nM (active). The GI50 (MDA-N) was 155 nM (active), the GI50 (CCRF-CEM) was 53.1 nM (active) and the GI50 (XF498) was 24.7 nM (active). The GI50 (MCF7) was 324 nM (active), the GI50 (786-0) was 64.4 nM (active) and the GI50 (CAKI-1) was 138 nM (active). The GI50 (DMS-114) was 14.4 nM (active), the GI50 (OVCAR-8) was 22.4 nM (active) and the GI50 (SK-MEL-28) was 70 nM (active). The GI50 (PC-3) was 223 nM (active), the GI50 (COLO 205) was 48.8 nM (active) and the GI50 (KM12) was 99.8 nM (active). The GI50 (RXF 393) was 68.7 nM (active), the GI50 (SF-268) was 24.3 nM (active) and the GI50 (Hs-578T) was 31.1 nM (active). For the same molecule, the GI50 (LOX IMVI) was 42.6 nM (active).
